As a reminder, the Kd is the free concentration of one partner at which half of the binding sites on the other are occupied at equilibrium, for simple one-to-one binding.

We go through 6 compounds from publication PMC5814057, “Folic acid derived-P5779 mimetics regulate DAMP-mediated inflammation through disruption of HMGB1:TLR4:MD-2 axes” (PLoS ONE, 2018).

In one series the target is T1, MD-2 (Homo sapiens, UniProt Q9Y6Y9).
T1 construct: purchased R&D Systems 1787-MD
T1 sequence (Q9Y6Y9 19-160): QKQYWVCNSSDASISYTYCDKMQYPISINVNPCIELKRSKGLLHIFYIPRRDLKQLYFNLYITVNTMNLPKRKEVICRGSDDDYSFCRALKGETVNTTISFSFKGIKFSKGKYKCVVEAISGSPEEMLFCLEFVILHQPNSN
Kind of series: SPR direct binding to immobilized MD-2 (Biacore T200). The note with it: MD-2 immobilized on CM5 chip. The protocol:
(§1) Biacore T200 (GE Healthcare, USA) was used for real-time binding interaction studies. […] For binding analyses, CM5 series chips (GE Healthcare) were activated and the reference flow-cell was blocked by 1 M ethanolamine (pH = 8.5). The ligand protein MD-2 dilution (10 ug/mL in 10 mM Acetate buffer pH 5) or HMGB1 (20 ug/mL in 10 mM acetate buffer pH = 4.5) or TLR4/MD2 complex (10 ug/mL in 10 mM acetate buffer pH 4.5) were subjected to the sample flow-cell at the flow rate of 10 uL/min until the surface Plasmon resonance reached 1000–2000 RU. Analytes (Folic acid analogues) diluted into 5 different concentrations were sequentially injected at a flow rate of 30uL/min for 60s or 120s (TLR4/MD-2). The dissociation time was set for 1 minute or 2 minutes (TLR4/MD-2). The equilibrium dissociation constant (KD) was obtained to evaluate the binding affinity by using the BIAEvaluation 2.0 software (GE Healthcare) supposing a 1:1 binding ratio. At least 3 independent experiments were performed.
In general terms: Surface plasmon resonance follows binding to a sensor surface in real time, without labels.

In the next series the target is T2, TLR4/MD-2 complex (Homo sapiens, UniProt O00206+Q9Y6Y9).
T2 construct: purchased R&D Systems 3146-TM-050
T2 sequence (O00206 24-631 limits assumed): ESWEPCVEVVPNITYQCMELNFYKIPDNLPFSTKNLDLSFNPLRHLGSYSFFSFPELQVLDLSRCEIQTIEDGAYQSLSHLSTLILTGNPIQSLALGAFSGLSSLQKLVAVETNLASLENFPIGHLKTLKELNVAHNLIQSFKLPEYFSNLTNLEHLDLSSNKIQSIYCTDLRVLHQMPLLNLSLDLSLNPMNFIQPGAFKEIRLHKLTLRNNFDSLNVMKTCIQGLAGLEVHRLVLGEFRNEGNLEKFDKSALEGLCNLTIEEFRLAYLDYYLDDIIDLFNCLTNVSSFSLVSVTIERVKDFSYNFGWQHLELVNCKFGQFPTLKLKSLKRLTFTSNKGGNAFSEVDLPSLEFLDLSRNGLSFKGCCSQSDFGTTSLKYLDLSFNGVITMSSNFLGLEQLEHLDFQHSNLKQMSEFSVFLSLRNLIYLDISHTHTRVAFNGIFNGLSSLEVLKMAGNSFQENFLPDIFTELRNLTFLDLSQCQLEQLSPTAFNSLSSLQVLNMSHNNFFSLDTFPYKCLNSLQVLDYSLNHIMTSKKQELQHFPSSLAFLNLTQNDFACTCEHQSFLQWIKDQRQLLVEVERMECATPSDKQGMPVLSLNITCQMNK
T2 sequence (Q9Y6Y9 17-160 limits assumed): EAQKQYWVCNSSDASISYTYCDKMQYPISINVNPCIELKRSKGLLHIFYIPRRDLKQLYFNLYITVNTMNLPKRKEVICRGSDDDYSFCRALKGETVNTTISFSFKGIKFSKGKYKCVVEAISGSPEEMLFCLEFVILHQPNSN
Description: SPR direct binding to immobilized TLR4/MD-2 complex. As to conditions: TLR4/MD-2 complex immobilized. How it is done:
Biacore T200 (GE Healthcare, USA) was used for real-time binding interaction studies. Recombinant human TLR4/MD2 (R&D 3146-TM-050) complex protein and MD2 (R&D 1787-MD) protein were purchased from R&D Systems (Minneapolis, USA). For binding analyses, CM5 series chips (GE Healthcare) were activated and the reference flow-cell was blocked by 1 M ethanolamine (pH = 8.5). The ligand protein MD-2 dilution (10 ug/mL in 10 mM Acetate buffer pH 5) or HMGB1 (20 ug/mL in 10 mM acetate buffer pH = 4.5) or TLR4/MD2 complex (10 ug/mL in 10 mM acetate buffer pH 4.5) were subjected to the sample flow-cell at the flow rate of 10 uL/min until the surface Plasmon resonance reached 1000–2000 RU. Analytes (Folic acid analogues) diluted into 5 different concentrations were sequentially injected at a flow rate of 30uL/min for 60s or 120s (TLR4/MD-2). The dissociation time was set for 1 minute or 2 minutes (TLR4/MD-2). The equilibrium dissociation constant (KD) was obtained to evaluate the binding affinity by using the BIAEvaluation 2.0 software (GE Healthcare) supposing a 1:1 binding ratio. At least 3 independent experiments were performed.

The test system of the next series is HMGB1. Description: SPR direct binding to immobilized HMGB1. The protocol: as §1
Series [1] in a line: Stability of compound noted for the SPR experiment. In kind it is physicochemical. The note with it: excluded from the SPR experiment.

Regarding `Nc1nc(N)c2nc(CNc3ccc(C(=O)N[C@@H](CCC(=O)O)C(=O)O)cc3)cnc2n1` [Aminopterin, aminopterin], the dissociation constant (Kd) on MD-2 came to 0.301 µM.

On to `Nc1nc(=O)c2nc(CNc3ccc(C(=O)N[C@@H](CCC(=O)O)C(=O)O)cc3)cnc2[nH]1` [Folic acid, folic acid], for which the figures for the Kd at TLR4/MD-2 complex and at MD-2 (1:1 binding) were 0.537 µM and 2.39 µM, respectively. Also, the “binding to MD-2 (in words)” value on MD-2 is reported as “moderate binding”. `Nc1nc2c(c(=O)[nH]1)N(C=O)C(CNc1ccc(C(=O)N[C@@H](CCC(=O)O)C(=O)O)cc1)CN2` (stereo partly drawn) [Leucovorin, leucovorin] registered a Kd at MD-2 (1:1 binding) of 15 µM. Consider `CN(Cc1cnc2nc(N)nc(N)c2n1)c1ccc(C(=O)N[C@@H](CCC(=O)O)C(=O)O)cc1` [Methotrexate, methotrexate], for which the “binding to HMGB1” value in the series on HMGB1 was “no binding”. This compound showed a Kd at MD-2 of 0.214 µM. In the case of `C#CCC(Cc1cnc2nc(N)nc(N)c2n1)c1ccc(C(=O)N[C@@H](CCC(=O)O)C(=O)O)cc1` (stereo partly drawn) [Pralatrexate, pralatrexate], on MD-2 (1:1 binding), the equilibrium dissociation constant (Kd) stood at 1.87 µM.

With `Nc1nc(=O)c2c([nH]1)NCC(CNc1ccc(C(=O)NC(CCC(=O)O)C(=O)O)cc1)N2` (stereo not drawn) [Tetrahydrofolic acid, tetrahydrofolic acid], the stability entry in series [1] is “decomposition over time”.
